These molecules were tested on HEK293 cells (assay: Preliminary screening as mRNA vectors, EGFP mRNA transfection of HEK293 cells). Settings: EGFP mRNA 50 ng per well, 96-well plates; percentage of GFP fluorescent cells relative to total number of cells (Hoechst).
Format: cell-based
Procedure, shortened: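 Each well of HEK293 cells received 50 ng of EGFP mRNA. Efficiency was expressed as percent GFP-expressing cells over Hoechst-defined total cell number.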

Compound | Absolute mRNA transfection efficiency in HEK293 cells [%]
CCCCCCCCCCCCCCCCNc1nc(NCCCN2CCOCC2)nc(SCCCCCCCCCCC)n1 [Compound D8S11N16] | 0.7
CCCCCCCCCCCCCCCCCCNc1nc(NCCCN2CCOCC2)nc(SCCCCCCCCCCC)n1 [Compound D8S11N18] | 0.6
CCCCCCCCCCCCSc1nc(NCCCCCC)nc(NCCCN2CCOCC2)n1 [Compound D8S12N6] | 0.9
CCCCCCCCCCCCSc1nc(NCCCCCCC)nc(NCCCN2CCOCC2)n1 [Compound D8S12N7] | 1.5
CCCCCCCCCCCCSc1nc(NCCCCCCCC)nc(NCCCN2CCOCC2)n1 [Compound D8S12N8] | 2.3
CCCCCCCCCCCCSc1nc(NCCCCCCCCC)nc(NCCCN2CCOCC2)n1 [Compound D8S12N9] | 2.3
CCCCCCCCCCCCSc1nc(NCCCCCCCCCCC)nc(NCCCN2CCOCC2)n1 [Compound D8S12N11] | 0.4
CCCCCCCCCCCCNc1nc(NCCCN2CCOCC2)nc(SCCCCCCCCCCCC)n1 [Compound D8S12N12] | 0.0
CCCCCCCCCCCCCNc1nc(NCCCN2CCOCC2)nc(SCCCCCCCCCCCC)n1 [Compound D8S12N13] | 0.3
CCCCCCCCCCCCCCCNc1nc(NCCCN2CCOCC2)nc(SCCCCCCCCCCCC)n1 [Compound D8S12N15] | 0.0
CCCCCCCCCCCCCCCCNc1nc(NCCCN2CCOCC2)nc(SCCCCCCCCCCCC)n1 [Compound D8S12N16] | 0.7
CCCCCCCCCCCCCCCCCCNc1nc(NCCCN2CCOCC2)nc(SCCCCCCCCCCCC)n1 [Compound D8S12N18] | 1.1
CCCCCCCCCCCCCCSc1nc(NCCCCCC)nc(NCCCN2CCOCC2)n1 [Compound D8S14N6] | 9.2
CCCCCCCCCCCCCCSc1nc(NCCCCCCC)nc(NCCCN2CCOCC2)n1 [Compound D8S14N7] | 3.1
CCCCCCCCCCCCCCSc1nc(NCCCCCCCC)nc(NCCCN2CCOCC2)n1 [Compound D8S14N8] | 1.6
CCCCCCCCCCCCCCSc1nc(NCCCCCCCCC)nc(NCCCN2CCOCC2)n1 [Compound D8S14N9] | 2.3
CCCCCCCCCCCCCCSc1nc(NCCCCCCCCCCC)nc(NCCCN2CCOCC2)n1 [Compound D8S14N11] | 2.0
CCCCCCCCCCCCCCSc1nc(NCCCCCCCCCCCC)nc(NCCCN2CCOCC2)n1 [Compound D8S14N12] | 1.3
CCCCCCCCCCCCCCSc1nc(NCCCCCCCCCCCCC)nc(NCCCN2CCOCC2)n1 [Compound D8S14N13] | 1.4
CCCCCCCCCCCCCCCNc1nc(NCCCN2CCOCC2)nc(SCCCCCCCCCCCCCC)n1 [Compound D8S14N15] | 0.0
CCCCCCCCCCCCCCCCNc1nc(NCCCN2CCOCC2)nc(SCCCCCCCCCCCCCC)n1 [Compound D8S14N16] | 0.4
CCCCCCCCCCCCCCCCCCNc1nc(NCCCN2CCOCC2)nc(SCCCCCCCCCCCCCC)n1 [Compound D8S14N18] | 0.3

Compound | Absolute mRNA transfection efficiency in HEK293 cells [%]
CCCCCCCCCCCCCCCSc1nc(NCCCCCC)nc(NCCCN2CCOCC2)n1 [Compound D8S15N6] | 3.5
CCCCCCCCCCCCCCCSc1nc(NCCCCCCC)nc(NCCCN2CCOCC2)n1 [Compound D8S15N7] | 2.2
CCCCCCCCCCCCCCCSc1nc(NCCCCCCCC)nc(NCCCN2CCOCC2)n1 [Compound D8S15N8] | 2.9
CCCCCCCCCCCCCCCSc1nc(NCCCCCCCCC)nc(NCCCN2CCOCC2)n1 [Compound D8S15N9] | 1.1
CCCCCCCCCCCCCCCSc1nc(NCCCCCCCCCCC)nc(NCCCN2CCOCC2)n1 [Compound D8S15N11] | 1.1
CCCCCCCCCCCCCCCSc1nc(NCCCCCCCCCCCC)nc(NCCCN2CCOCC2)n1 [Compound D8S15N12] | 0.3
CCCCCCCCCCCCCCCSc1nc(NCCCCCCCCCCCCC)nc(NCCCN2CCOCC2)n1 [Compound D8S15N13] | 0.2
CCCCCCCCCCCCCCCNc1nc(NCCCN2CCOCC2)nc(SCCCCCCCCCCCCCCC)n1 [Compound D8S15N15] | 0.1
CCCCCCCCCCCCCCCCNc1nc(NCCCN2CCOCC2)nc(SCCCCCCCCCCCCCCC)n1 [Compound D8S15N16] | 0.4
CCCCCCCCCCCCCCCCCCNc1nc(NCCCN2CCOCC2)nc(SCCCCCCCCCCCCCCC)n1 [Compound D8S15N18] | 0.4
CCCCCCCCCCCCCCCCSc1nc(NCCCCCC)nc(NCCCN2CCOCC2)n1 [Compound D8S16N6] | 18.2
CCCCCCCCCCCCCCCCSc1nc(NCCCCCCC)nc(NCCCN2CCOCC2)n1 [Compound D8S16N7] | 17.7
CCCCCCCCCCCCCCCCSc1nc(NCCCCCCCC)nc(NCCCN2CCOCC2)n1 [Compound D8S16N8] | 17.8
CCCCCCCCCCCCCCCCSc1nc(NCCCCCCCCC)nc(NCCCN2CCOCC2)n1 [Compound D8S16N9] | 2.1
CCCCCCCCCCCCCCCCSc1nc(NCCCCCCCCCCC)nc(NCCCN2CCOCC2)n1 [Compound D8S16N11] | 3.6
CCCCCCCCCCCCCCCCSc1nc(NCCCCCCCCCCCC)nc(NCCCN2CCOCC2)n1 [Compound D8S16N12] | 0.9
CCCCCCCCCCCCCCCCSc1nc(NCCCCCCCCCCCCC)nc(NCCCN2CCOCC2)n1 [Compound D8S16N13] | 0.1
CCCCCCCCCCCCCCCCSc1nc(NCCCCCCCCCCCCCCC)nc(NCCCN2CCOCC2)n1 [Compound D8S16N15] | 0.0
CCCCCCCCCCCCCCCCNc1nc(NCCCN2CCOCC2)nc(SCCCCCCCCCCCCCCCC)n1 [Compound D8S16N16] | 0.0
CCCCCCCCCCCCCCCCCCNc1nc(NCCCN2CCOCC2)nc(SCCCCCCCCCCCCCCCC)n1 [Compound D8S16N18] | 0.0
CCCCCCCCCCCCCCCCCCSc1nc(NCCCCCC)nc(NCCCN2CCOCC2)n1 [Compound D8S18N6] | 1.0
CCCCCCCCCCCCCCCCCCSc1nc(NCCCCCCC)nc(NCCCN2CCOCC2)n1 [Compound D8S18N7] | 3.9

Compound | Absolute mRNA transfection efficiency in HEK293 cells [%]
CCCCCCCCCCCCCCCCCCSc1nc(NCCCCCCCC)nc(NCCCN2CCOCC2)n1 [Compound D8S18N8] | 0.5
CCCCCCCCCCCCCCCCCCSc1nc(NCCCCCCCCC)nc(NCCCN2CCOCC2)n1 [Compound D8S18N9] | 0.2
CCCCCCCCCCCCCCCCCCSc1nc(NCCCCCCCCCCC)nc(NCCCN2CCOCC2)n1 [Compound D8S18N11] | 1.9
CCCCCCCCCCCCCCCCCCSc1nc(NCCCCCCCCCCCC)nc(NCCCN2CCOCC2)n1 [Compound D8S18N12] | 0.4
CCCCCCCCCCCCCCCCCCSc1nc(NCCCCCCCCCCCCC)nc(NCCCN2CCOCC2)n1 [Compound D8S18N13] | 0.0
CCCCCCCCCCCCCCCCCCSc1nc(NCCCCCCCCCCCCCCC)nc(NCCCN2CCOCC2)n1 [Compound D8S18N15] | 0.0
CCCCCCCCCCCCCCCCCCSc1nc(NCCCCCCCCCCCCCCCC)nc(NCCCN2CCOCC2)n1 [Compound D8S18N16] | 0.0
CCCCCCCCCCCCCCCCCCNc1nc(NCCCN2CCOCC2)nc(SCCCCCCCCCCCCCCCCCC)n1 [Compound D8S18N18] | 0.0
CCCCCCNc1nc(NCCCN2CCN(C)CC2)nc(SCCCCCC)n1 [Compound D9S6N6] | 1.5
CCCCCCCNc1nc(NCCCN2CCN(C)CC2)nc(SCCCCCC)n1 [Compound D9S6N7] | 2.6
CCCCCCCCNc1nc(NCCCN2CCN(C)CC2)nc(SCCCCCC)n1 [Compound D9S6N8] | 2.5
CCCCCCCCCNc1nc(NCCCN2CCN(C)CC2)nc(SCCCCCC)n1 [Compound D9S6N9] | 0.9
CCCCCCCCCCCNc1nc(NCCCN2CCN(C)CC2)nc(SCCCCCC)n1 [Compound D9S6N11] | 11.9
CCCCCCCCCCCCNc1nc(NCCCN2CCN(C)CC2)nc(SCCCCCC)n1 [Compound D9S6N12] | 4.9
CCCCCCCCCCCCCNc1nc(NCCCN2CCN(C)CC2)nc(SCCCCCC)n1 [Compound D9S6N13] | 6.6
CCCCCCCCCCCCCCCNc1nc(NCCCN2CCN(C)CC2)nc(SCCCCCC)n1 [Compound D9S6N15] | 11.9
CCCCCCCCCCCCCCCCNc1nc(NCCCN2CCN(C)CC2)nc(SCCCCCC)n1 [Compound D9S6N16] | 29.6
CCCCCCCCCCCCCCCCCCNc1nc(NCCCN2CCN(C)CC2)nc(SCCCCCC)n1 [Compound D9S6N18] | 24.0
CCCCCCSc1nc(NCCCN2CCN(C)CC2)nc(SCCCCCC)n1 [Compound D9S6S6] | 8.0
CCCCCCCSc1nc(NCCCN2CCN(C)CC2)nc(SCCCCCC)n1 [Compound D9S6S7] | 6.3
CCCCCCCCSc1nc(NCCCN2CCN(C)CC2)nc(SCCCCCC)n1 [Compound D9S6S8] | 3.0

Source: patent US20230123334A1, “AMINO LIPID COMPOUND, PREPARATION METHOD THEREFOR, AND APPLICATION THEREOF” (SHENZHEN SHENXIN BIOTECHNOLOGY CO., LTD., priority 2020, published 2023)
